The structures appear in SMILES notation.

For assay [1], the target named is T1, LXRα (Homo sapiens, UniProt Q13133).
T1 sequence (Q13133 1-447): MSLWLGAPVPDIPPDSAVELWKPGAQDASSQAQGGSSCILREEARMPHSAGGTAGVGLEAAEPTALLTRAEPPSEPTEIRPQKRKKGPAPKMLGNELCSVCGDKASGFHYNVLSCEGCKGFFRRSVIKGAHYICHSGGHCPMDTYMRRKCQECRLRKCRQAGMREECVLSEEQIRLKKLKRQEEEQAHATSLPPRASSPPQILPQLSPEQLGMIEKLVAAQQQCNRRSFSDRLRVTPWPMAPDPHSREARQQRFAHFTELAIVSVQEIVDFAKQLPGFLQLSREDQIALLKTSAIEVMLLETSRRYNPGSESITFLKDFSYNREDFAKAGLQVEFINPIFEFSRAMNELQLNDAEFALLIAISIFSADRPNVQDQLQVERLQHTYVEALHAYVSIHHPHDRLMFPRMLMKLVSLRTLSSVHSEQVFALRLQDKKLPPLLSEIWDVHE
Kind of assay: LXR Gal4 reporter transient transfection assay (mammalian two-hybrid, HEK293), LXRα. In kind it is cell-based. Further details: expressed in transfected cells; host or cells: HEK293. Particulars: full length (FL) LXRα, HEK293; read-out: FL-M2H Gal4α. On the procedure:
(§1) LXRα and LXRβ activity status was determined via detection of interaction with coactivator and corepressor proteins in mammalian two-hybrid experiments (M2H). For this, via transient transfection the full length (FL) proteins of LXRα (amino acids 1-447; NP005684; SEQ ID NO:1) or LXRβ-(amino acids 1-461; NP009052; SEQ ID NO:2) or the ligand-binding domains (LBD) of LXRα (amino acids 155-447 SEQ ID NO:3) or LXRβ (amino acids 156-461; SEQ ID NO:4) were expressed from pCMV-AD (Stratagene) as fusions to the transcriptional activation domain of NFkB. As cofactors, domains of either the steroid receptor coactivator 1 (SRC1; amino acids 552-887; SEQ ID NO:5) or of the corepressor NCoR (amino acids 1906-2312; NP006302; SEQ ID NO:6) were expressed as fusions to the DNA binding domain of the yeast transcription factor GAL4 (from pCMV-BD; Stratagene). Interaction was monitored via activation of a coexpressed Firefly Luciferase Reporter gene under control of a promoter containing repetitive GAL4 response elements (vector pFRLuc; Stratagene). Transfection efficiency was controlled via cotransfection of constitutively active pRL-CMV Renilla reniformis luciferase reporter (Promega). HEK293 cells were grown in minimum essential medium (MEM) with 2 mM L-glutamine and Earle's balanced salt solution supplemented with 8.3% fetal bovine serum, 0.1 mM non-essential amino acids, 1 mM sodium pyruvate, at 37° C. in 5% CO2. 3.5×10^4 cells/well were plated in 96-well cell culture plates in growth medium supplemented with 8.3% fetal bovine serum for 16-20 h to ˜90% confluency. For transfection, medium was taken off and LXR and cofactor expressing plasmids as well as the reporter plasmids are added in 30 μL OPTIMEM/well including polyethylene-imine (PEI) as vehicle. Typical amounts of plasmids transfected/well: pCMV-AD-LXR (5 ng), pCMV-BD-cofactor (5 ng), pFR-Luc (100 ng), pRL-CMV (0.5 ng). Compound stocks were prepared in DMSO, prediluted in MEM to a total volume of 120 μL, and added 4 h after addition of the transfection mixture (final vehicle concentration not exceeding 0.2%). Cells were incubated for additional 16 h, lysed for 10 min in 1×Passive Lysis Buffer (Promega) and Firefly and Renilla luciferase activities were measured sequentially in the same cell extract using buffers containing D-luciferine and coelenterazine, respectively. Measurements of luminescence were done in a BMG-luminometer.
(§2) The potencies of Compound 21/3 and its analog, Compound pre-6/3, against LXRα and LXRβ were evaluated in biochemical binding assays, cellular mammalian two-hybrid (M2H) interaction assays evaluating nuclear receptor co-repressor (NCOR) recruitment, and cellular reporter assays evaluating transcriptional activity (Table 5).

Assay [2] concerns the target T2, LXRα (Homo sapiens, UniProt Q13133).
T2 construct: full length (FL) proteins of LXRα (amino acids 1-447); NP005684
The description is as above. In kind it is cell-based. The following applies: HEK293, NCOR recruitment, mean ± SD; read-out: HEK293 LXRα/NCOR recruitment (M2H) EC50. On the procedure: as §1, §2

The next assay concerns the target LXRβ (Homo sapiens, UniProt P55055). The assay is described as follows: LXR Gal4 reporter transient transfection assay (mammalian two-hybrid, HEK293), LXRβ. The following applies: HEK293, NCOR recruitment, mean ± SD; read-out: HEK293 LXRβ/NCOR recruitment (M2H) EC50. In kind it is cell-based. The gist of the method: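 Mammalian two-hybrid read-out of LXR–coactivator (SRC1) or corepressor (NCoR) interaction: firefly luciferase under GAL4 response elements, normalised via Renilla co-transfection. LXRα/β full-length or LBD fusions expressed transiently in HEK293; compounds (final DMSO ≤0.2%) given 4 h after transfection for 16 h before lysis.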

Assay [3] concerns the target T1, LXRα. The assay is described as follows: Biochemical binding assay LXRα. The following applies: mean ± SD; read-out: LXα binding EC50. On the procedure: as §2
The test system of another assay is ABCA1 reporter in HT-29. The assay is described as follows: HT-29 ABCA1 reporter assay. In kind it is cell-based. The following applies: Homo sapiens; HT-29, mean ± SD. As for the experimental part:
as §2
(Reporter assays use an easily measured gene product as a stand-in for the process of interest.)

The subject of assay [4] is SREBP1c reporter in HepG2. Kind of assay: HepG2 SREBP1c reporter assay. In kind it is cell-based. Particulars: Homo sapiens; HepG2, mean ± SD. As for the experimental part: as §2
The subject of a further assay is HFD-fed ZDF rats. The assay is described as follows: HFD-fed Zucker diabetic fatty (ZDF) rat model. In kind it is in vivo. From the text:
Data are shown as mean±SD. N=5-8 animals per group. *p≤0.05, **p≤0.01, ***p≤0.001, ****p≤0.0001 vs. vehicle, unless otherwise indicated; ^#p≤0.05 pioglitazone vs. vehicle Kruskal-Wallis (non-parametric One-Way ANOVA) test with Dunn's multiple comparisons test (FIG. 4A, FIG. 4B, FIG. 4D), repeated measures two-way ANOVA with Dunnett's multiple comparisons test (FIG. 4C), two-way ANOVA with Sidak's multiple comparisons test (FIG. 4E), Mann-Whitney test (FIG. 4F-G).
Data are shown as mean±SD. N=5-8 animals per group. *p≤0.05, **p≤0.01, ***p≤0.001, ****p≤0.0001 vs. vehicle, unless otherwise indicated; ^#p≤0.05 pioglitazone vs. vehicle repeated measures two-way ANOVA with Dunnett's multiple comparisons test (FIG. 5A, FIG. 5C, FIG. 5D), Kruskal-Wallis (non-parametric one-way ANOVA) test with Dunn's multiple comparisons test (FIG. 5B, FIG. 5E).
The efficacy of Compound 21/3 was evaluated in three dysmetabolic rodent models including DIO mice, HFD-fed ZDF rats, and HFD-fed SD rats (FIG. 4 and FIG. 5). Briefly, DIO mice were fed a HFD (60% kcal from fat) for 14 weeks and treated with Compound 21/3 (0.3 and 1 mg/kg once daily by oral gavage) for three weeks, […]

Sequence of LXRβ (P55055 whole entry, the tested form may be a part): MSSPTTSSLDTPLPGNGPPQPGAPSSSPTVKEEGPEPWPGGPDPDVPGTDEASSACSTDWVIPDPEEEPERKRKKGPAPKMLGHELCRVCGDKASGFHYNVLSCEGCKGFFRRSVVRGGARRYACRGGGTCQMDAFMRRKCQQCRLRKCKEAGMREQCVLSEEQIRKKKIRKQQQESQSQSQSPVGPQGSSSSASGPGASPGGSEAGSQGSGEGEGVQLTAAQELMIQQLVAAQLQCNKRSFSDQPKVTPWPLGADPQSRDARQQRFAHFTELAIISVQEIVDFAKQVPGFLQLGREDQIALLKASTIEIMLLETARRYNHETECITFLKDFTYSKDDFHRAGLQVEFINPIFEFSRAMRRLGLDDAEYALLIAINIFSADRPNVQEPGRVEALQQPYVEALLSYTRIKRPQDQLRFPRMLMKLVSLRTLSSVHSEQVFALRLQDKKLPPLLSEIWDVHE
Sequence of LXRβ (O75376 1906-2312 partner): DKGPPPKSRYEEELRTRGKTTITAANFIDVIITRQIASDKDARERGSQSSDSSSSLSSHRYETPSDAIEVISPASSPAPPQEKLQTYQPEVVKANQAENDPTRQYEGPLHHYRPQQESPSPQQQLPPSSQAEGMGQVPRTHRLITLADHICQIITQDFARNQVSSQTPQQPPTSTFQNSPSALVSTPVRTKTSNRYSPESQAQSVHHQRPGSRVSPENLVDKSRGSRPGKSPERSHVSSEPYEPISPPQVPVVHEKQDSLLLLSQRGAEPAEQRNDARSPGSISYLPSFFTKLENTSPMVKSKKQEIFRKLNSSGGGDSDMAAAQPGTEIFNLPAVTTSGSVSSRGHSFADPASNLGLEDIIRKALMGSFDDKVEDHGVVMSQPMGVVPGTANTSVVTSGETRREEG

For `N#Cc1sccc1-c1c(-c2cccc(-c3ccc(C(=O)O)cc3Cl)c2)n(S(=O)(=O)c2ccc(C(F)F)cc2)c2ccc(F)cc12` [11/17], at LXRα [1], the EC50 was less than 100 nM.

With `N#Cc1cccc(C#N)c1-c1c(-c2cccc([C@H]3CC[C@H](C(=O)O)CC3)c2)n(S(=O)(=O)c2ccc(C(F)F)cc2)c2ccc(F)cc12` [11/62], on LXRα [1], the EC50 was less than 100 nM.

With `CS(=O)(=O)NC(=O)c1ccc(-c2cccc(-c3c(-c4c(C#N)cccc4C#N)c4cc(F)ccc4n3S(=O)(=O)c3ccc(C(F)F)cc3)c2)c(Cl)c1` [32/5], at LXRα [1], the EC50 is less than 100 nM.

As to `N#Cc1cccc(C#N)c1-c1c(-c2cccc(-c3ccc(C(=O)NCC(=O)O)cc3Cl)c2)n(S(=O)(=O)c2ccc(C(F)F)cc2)c2ccc(F)cc12` [Compound 21/3], the EC50 stood at 8 ± 7 nM at LXRα [2], 11 ± 19 nM at LXRβ and 7 ± 16 nM on LXRα [3]. Moreover, the IC50 – broadly, the point on the concentration scale where inhibition reaches its midpoint – in the assay with ABCA1 reporter in HT-29 came out at 15 ± 4 nM; in assay [4], 7 ± 5 nM. Further, the “hepatic expression and plasma levels of ANGPTL3” value with HFD-fed ZDF rats (15 mg/kg once daily oral) is given as “reduced”. Moreover, the “immunostaining of pancreatic sections for insulin relative to vehicle” value with HFD-fed ZDF rats (15 mg/kg once daily oral, 5 weeks) is listed as “more prominent staining for insulin”. Further, the “glucose tolerance (oral glucose tolerance test)” value in the assay on HFD-fed ZDF rats (15 mg/kg once daily oral, after 4 weeks of dosing) is on record as “significantly improved”. Also, the “liver expression of DNL genes (Srebp1c, Fasn, Acaca, Scd1)” value in the assay with HFD-fed ZDF rats (0.1 and 1 mg/kg once daily oral) was “dose-dependently reduced”. For the same compound, in the assay on HFD-fed ZDF rats (highest dose 1 mg/kg, p≤0.05), the “reduction of plasma TG compared with vehicle” value was determined as 96%. Further, in the assay with HFD-fed ZDF rats (p≤0.01), the “maximal reduction of liver TG versus vehicle” value stood at 49%. In addition, the “reduction of plasma total cholesterol (TC) at end of treatment compared with vehicle” value in the assay on HFD-fed ZDF rats (p≤0.05) was 67%.

Take `N#Cc1cccc(C#N)c1-c1c(-c2cccc(-c3ccc(C(=O)O)cc3Cl)c2)n(S(=O)(=O)c2ccc(C(F)F)cc2)c2ccc(F)cc12` [pre-6/3]: the EC50 at LXRα [2] worked out at 0.2 ± 0.1 nM; at LXRβ it was 0.4 ± 0.2 nM; on LXRα [3] it was 14 ± 5 nM. The IC50 amounted to 0.7 ± 0.1 nM in the assay with ABCA1 reporter in HT-29 and 0.2 ± 0.1 nM in assay [4]. Besides, the “hepatic expression of Angptl3, Angptl4, Angptl8, ApoC1, ApoC2, ApoC3” value in the assay on HFD-fed ZDF rats (5 mg/kg once daily oral) was “suppressed”.

The values are drawn from US20260083704A1, “LXR MODULATORS WITH BICYCLIC CORE MOIETY FOR TREATING DYSLIPIDEMIAS” (OrsoBio, Inc., priority 2022, published 2026).
